Measured values taken from ChEMBL document CHEMBL6153137, “Design, Synthesis, and Biological Evaluation of Novel Orally Available Covalent CDK12/13 Dual Inhibitors for the Treatment of Tumors” (J Med Chem, 2025).
Active and inactive are the calls of the source. No cut-off for these calls is given here.

Tests used:
[1] = GSH reactivity assessed as half life to adduct formation at 10 uM by LC-MS/MS analysis; assay type: physicochemical
[2] = Toxicity against Sprague-Dawley rat assessed as abnormalities at 5 to 15 mg/kg, po measured for 24 hrs; assay type: organism-based; conditions: in vivo, dose 5-15 mg/kg
[3] = Cmax in male Sprague-Dawley rat at 20 mg/kg, po administered once daily via gavage for 28 days; assay type: ADME, organism-based; conditions: in vivo, time 28 day
[4] = tested on: Mus musculus; assay: In vivo inhibition of CDK12/13 in Balb/c mouse xenografted with human SUM149PT cells assessed as reduction in ATM gene expression at 15 to 30 mg/kg, po administered once daily via gavage and measured at 4 hrs post-last drug dosage by qPCR analysis; assay type: functional, organism-based; conditions: dose 15-30 mg/kg
[5] = Half life in Sprague-Dawley rat at 1 mg/kg, iv measured for 24 hrs by LC-MS/MS analysis; assay type: ADME, organism-based; conditions: in vivo
[6] = Half life in Sprague-Dawley rat at 50 mg/kg, po measured for 24 hrs by LC-MS/MS analysis; assay type: ADME, organism-based; conditions: in vivo
[7] = AUC (0 to infinity) in Sprague-Dawley rat at 15 mg/kg, po by LC-MS/MS analysis; assay type: ADME, organism-based; conditions: in vivo
[8] = Toxicity against female Sprague-Dawley rat assessed as decrease in thymus weight at 7.5 to 30 mg/kg, po administered once daily via gavage for 28 days and measured on day 29; assay type: organism-based; conditions: in vivo, 696 h, dose 7.5-30 mg/kg, time 29 day
[9] = tested on: Mus musculus; assay: In vivo inhibition of CDK12/13 in Balb/c mouse xenografted with human SUM149PT cells assessed as reduction in BRCA1 gene expression at 15 to 30 mg/kg, po administered once daily via gavage and measured at 4 hrs post-last drug dosage by qPCR analysis; assay type: functional, organism-based; conditions: dose 15-30 mg/kg
[10] = tested on: SW-403; assay: Antiproliferative activity against human SW403 cells assessed as reduction in cell viability incubated for 7 days by CellTiter-Glo reagent based luminescence analysis; assay type: functional; conditions: SW-403, 168 h
[11] = Toxicity against female Sprague-Dawley rat assessed as effect on monocytes level at 7.5 to 30 mg/kg, po administered once daily via gavage for 28 days and measured on day 29; assay type: organism-based; conditions: in vivo, 696 h, dose 7.5-30 mg/kg, time 29 day
[12] = Toxicity against female Sprague-Dawley rat assessed as decrease in lymphocytes content at 7.5 to 30 mg/kg, po administered once daily via gavage for 28 days and measured on day 29; assay type: organism-based; conditions: in vivo, 696 h, dose 7.5-30 mg/kg, time 29 day
[13] = GSH reactivity assessed as half life to adduct formation at 1 uM by LC-MS/MS analysis; assay type: physicochemical
[14] = tested on: SUM149PT; assay: Antiproliferative activity against human SUM149PT cells assessed as inhibition of cell growth incubated for 7 days by CellTiter-Glo reagent based luminescence analysis; assay type: functional; conditions: 168 h
[15] = tested on: Mus musculus; assay: In vivo inhibition of CDK12/13 in Balb/c mouse xenografted with human SUM149PT cells assessed as reduction in phosphorylation of Ser2 on RNA Pol II at 15 to 30 mg/kg, po administered once daily via gavage and measured at 4 hrs post-last drug dosage by western blot analysis; assay type: functional, organism-based; conditions: dose 15-30 mg/kg
[16] = target: Cyclin-dependent kinase 9 (Homo sapiens) (UniProt P50750); assay: Inhibition of CDK9 in human SUM149PT cells assessed as reduction in level of phosphorylation of Ser7 on RNA Pol II CTD at 500 nM incubated for 12 hrs followed by drug wash-out and measured after 72 hrs by western blot analysis; assay type: cell-based
Chain of Cyclin-dependent kinase 9 (Homo sapiens) (P50750 whole entry): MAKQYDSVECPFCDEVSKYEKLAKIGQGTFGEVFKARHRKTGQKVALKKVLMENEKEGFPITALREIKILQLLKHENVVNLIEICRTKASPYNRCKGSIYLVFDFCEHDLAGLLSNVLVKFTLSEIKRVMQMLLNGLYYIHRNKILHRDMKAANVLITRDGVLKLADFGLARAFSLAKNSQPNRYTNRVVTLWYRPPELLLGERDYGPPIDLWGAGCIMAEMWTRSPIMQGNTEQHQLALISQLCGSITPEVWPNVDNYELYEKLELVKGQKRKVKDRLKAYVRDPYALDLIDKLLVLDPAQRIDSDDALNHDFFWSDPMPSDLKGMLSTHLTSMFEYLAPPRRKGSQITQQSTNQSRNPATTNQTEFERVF

[17] = target: Cyclin-dependent kinase 7 (Homo sapiens) (UniProt P50613); assay: Inhibition of CDK7 (unknown origin) at 5 uM by DiscoverX KinomeScan ScanMAX analysis
Chain of Cyclin-dependent kinase 7 (Homo sapiens) (P50613 whole entry): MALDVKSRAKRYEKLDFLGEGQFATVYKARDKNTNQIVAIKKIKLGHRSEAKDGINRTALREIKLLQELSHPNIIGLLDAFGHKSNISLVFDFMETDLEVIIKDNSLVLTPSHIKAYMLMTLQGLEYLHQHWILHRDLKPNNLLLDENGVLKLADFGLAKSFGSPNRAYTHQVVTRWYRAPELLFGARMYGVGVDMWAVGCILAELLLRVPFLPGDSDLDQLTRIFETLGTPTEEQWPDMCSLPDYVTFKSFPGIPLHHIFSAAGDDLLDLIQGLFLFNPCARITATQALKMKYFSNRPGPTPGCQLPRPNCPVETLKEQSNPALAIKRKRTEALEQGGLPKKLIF

[18] = Toxicity against Balb/c mouse xenografted with human MV4-11 cells assessed as effect on body weight at 15 to 30 mg/kg, po administered once daily via gavage and measured every 3 days for 3 weeks; assay type: organism-based; conditions: in vivo, 504 h, dose 15-30 mg/kg
[19] = tested on: KARPAS-299; assay: Antiproliferative activity against human KARPAS-299 cells assessed as reduction in cell viability incubated for 7 days by CellTiter-Glo reagent based luminescence analysis; assay type: functional; conditions: KARPAS-299, 168 h
[20] = Oral bioavailability in Sprague-Dawley rat at 5 mg/kg measured for 24 hrs by LC-MS/MS analysis; assay type: ADME, organism-based; conditions: in vivo
[21] = AUC(0 to t) in male Sprague-Dawley rat at 10 mg/kg, po administered once daily via gavage for 28 days; assay type: ADME, organism-based; conditions: in vivo, 672 h, time 28 day
[22] = target: Cyclin-dependent kinase 13/Cyclin-K (Homo sapiens, UniProt Q14004); assay: Inhibition of CDK13/Cyclin K (unknown origin) using pS7-CTD peptide and ATP as substrate incubated for 120 mins by ADP-Glo reagent based luminescence analysis; assay type: protein-complex assay
Chain of Cyclin-dependent kinase 13/Cyclin-K (Q14004 whole entry): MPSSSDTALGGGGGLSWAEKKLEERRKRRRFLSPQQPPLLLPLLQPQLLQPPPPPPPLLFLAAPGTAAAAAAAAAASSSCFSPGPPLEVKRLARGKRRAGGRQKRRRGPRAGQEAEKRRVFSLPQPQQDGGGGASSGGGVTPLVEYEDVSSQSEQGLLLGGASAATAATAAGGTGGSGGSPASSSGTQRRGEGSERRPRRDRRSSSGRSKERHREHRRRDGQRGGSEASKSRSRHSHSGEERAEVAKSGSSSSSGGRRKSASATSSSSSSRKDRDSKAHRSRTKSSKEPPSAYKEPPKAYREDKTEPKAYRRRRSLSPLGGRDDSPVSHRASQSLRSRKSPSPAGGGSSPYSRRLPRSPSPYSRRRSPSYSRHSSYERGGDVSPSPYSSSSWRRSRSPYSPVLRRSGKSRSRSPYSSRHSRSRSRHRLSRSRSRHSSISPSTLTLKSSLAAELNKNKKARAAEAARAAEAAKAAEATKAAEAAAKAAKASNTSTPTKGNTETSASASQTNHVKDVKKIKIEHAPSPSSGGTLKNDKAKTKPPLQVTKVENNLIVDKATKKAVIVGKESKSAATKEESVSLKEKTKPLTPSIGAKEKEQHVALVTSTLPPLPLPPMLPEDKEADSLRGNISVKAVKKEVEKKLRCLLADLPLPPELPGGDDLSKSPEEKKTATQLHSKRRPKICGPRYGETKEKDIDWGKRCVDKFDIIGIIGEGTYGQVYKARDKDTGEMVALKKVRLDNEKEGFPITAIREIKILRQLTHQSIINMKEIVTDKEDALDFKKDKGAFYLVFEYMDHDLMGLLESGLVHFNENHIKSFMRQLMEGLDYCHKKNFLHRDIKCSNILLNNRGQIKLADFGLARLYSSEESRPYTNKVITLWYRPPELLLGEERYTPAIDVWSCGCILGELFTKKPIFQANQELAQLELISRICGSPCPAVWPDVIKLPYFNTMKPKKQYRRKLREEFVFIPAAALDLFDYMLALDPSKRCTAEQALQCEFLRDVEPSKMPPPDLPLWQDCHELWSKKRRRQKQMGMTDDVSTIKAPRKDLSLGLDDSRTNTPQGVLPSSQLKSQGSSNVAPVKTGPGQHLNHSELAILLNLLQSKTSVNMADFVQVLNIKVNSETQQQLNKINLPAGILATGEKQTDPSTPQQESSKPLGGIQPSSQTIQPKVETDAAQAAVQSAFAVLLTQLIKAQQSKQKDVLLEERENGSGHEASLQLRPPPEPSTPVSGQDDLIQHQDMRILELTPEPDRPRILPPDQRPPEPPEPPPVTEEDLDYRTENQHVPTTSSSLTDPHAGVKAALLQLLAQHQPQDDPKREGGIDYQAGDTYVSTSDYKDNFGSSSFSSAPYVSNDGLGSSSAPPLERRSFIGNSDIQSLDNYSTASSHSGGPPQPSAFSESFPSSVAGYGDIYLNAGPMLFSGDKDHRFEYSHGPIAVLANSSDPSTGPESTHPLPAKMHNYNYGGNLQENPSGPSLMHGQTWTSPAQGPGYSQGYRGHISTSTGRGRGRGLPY
Chain of Cyclin-dependent kinase 13/Cyclin-K (O75909 whole entry, further chain): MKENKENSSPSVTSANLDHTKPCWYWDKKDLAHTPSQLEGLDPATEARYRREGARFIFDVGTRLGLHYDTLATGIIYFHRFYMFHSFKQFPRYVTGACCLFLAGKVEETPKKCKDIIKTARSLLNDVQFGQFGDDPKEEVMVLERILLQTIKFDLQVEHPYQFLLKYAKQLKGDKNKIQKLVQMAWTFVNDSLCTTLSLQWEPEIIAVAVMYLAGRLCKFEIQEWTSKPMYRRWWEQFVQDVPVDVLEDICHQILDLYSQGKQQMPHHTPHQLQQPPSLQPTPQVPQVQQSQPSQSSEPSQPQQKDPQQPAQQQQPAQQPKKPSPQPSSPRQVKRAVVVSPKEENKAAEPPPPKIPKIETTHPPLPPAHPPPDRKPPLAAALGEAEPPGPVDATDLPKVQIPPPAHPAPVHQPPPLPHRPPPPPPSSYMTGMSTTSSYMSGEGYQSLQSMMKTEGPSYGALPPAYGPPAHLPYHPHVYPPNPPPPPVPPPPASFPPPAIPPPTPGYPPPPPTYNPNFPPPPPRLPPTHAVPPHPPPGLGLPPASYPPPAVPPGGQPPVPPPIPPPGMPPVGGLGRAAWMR

[23] = Toxicity against male Sprague-Dawley rat assessed as effect on mean corpuscular volume at 10 to 40 mg/kg, po administered once daily via gavage for 28 days and measured on day 29; assay type: organism-based; conditions: in vivo, 696 h, dose 10-40 mg/kg, time 29 day
[24] = target: CDK12/Cyclin K (Homo sapiens) (UniProt O75909+Q9NYV4); assay: Inhibition of N-terminal GST-tagged human recombinant CDK12/N-terminal FLAG and C-terminal 6X His-tagged Cyclin K expressed in HEP Sf9 cells using ATP as substrate at 2 uM measured after 60 mins by ADP-Glo reagent based luminescence assay
Chain of CDK12/Cyclin K (Homo sapiens) (O75909 whole entry, looked up): as the sequence (O75909 whole entry, further chain) above
Chain of CDK12/Cyclin K (Homo sapiens) (Q9NYV4 whole entry, looked up): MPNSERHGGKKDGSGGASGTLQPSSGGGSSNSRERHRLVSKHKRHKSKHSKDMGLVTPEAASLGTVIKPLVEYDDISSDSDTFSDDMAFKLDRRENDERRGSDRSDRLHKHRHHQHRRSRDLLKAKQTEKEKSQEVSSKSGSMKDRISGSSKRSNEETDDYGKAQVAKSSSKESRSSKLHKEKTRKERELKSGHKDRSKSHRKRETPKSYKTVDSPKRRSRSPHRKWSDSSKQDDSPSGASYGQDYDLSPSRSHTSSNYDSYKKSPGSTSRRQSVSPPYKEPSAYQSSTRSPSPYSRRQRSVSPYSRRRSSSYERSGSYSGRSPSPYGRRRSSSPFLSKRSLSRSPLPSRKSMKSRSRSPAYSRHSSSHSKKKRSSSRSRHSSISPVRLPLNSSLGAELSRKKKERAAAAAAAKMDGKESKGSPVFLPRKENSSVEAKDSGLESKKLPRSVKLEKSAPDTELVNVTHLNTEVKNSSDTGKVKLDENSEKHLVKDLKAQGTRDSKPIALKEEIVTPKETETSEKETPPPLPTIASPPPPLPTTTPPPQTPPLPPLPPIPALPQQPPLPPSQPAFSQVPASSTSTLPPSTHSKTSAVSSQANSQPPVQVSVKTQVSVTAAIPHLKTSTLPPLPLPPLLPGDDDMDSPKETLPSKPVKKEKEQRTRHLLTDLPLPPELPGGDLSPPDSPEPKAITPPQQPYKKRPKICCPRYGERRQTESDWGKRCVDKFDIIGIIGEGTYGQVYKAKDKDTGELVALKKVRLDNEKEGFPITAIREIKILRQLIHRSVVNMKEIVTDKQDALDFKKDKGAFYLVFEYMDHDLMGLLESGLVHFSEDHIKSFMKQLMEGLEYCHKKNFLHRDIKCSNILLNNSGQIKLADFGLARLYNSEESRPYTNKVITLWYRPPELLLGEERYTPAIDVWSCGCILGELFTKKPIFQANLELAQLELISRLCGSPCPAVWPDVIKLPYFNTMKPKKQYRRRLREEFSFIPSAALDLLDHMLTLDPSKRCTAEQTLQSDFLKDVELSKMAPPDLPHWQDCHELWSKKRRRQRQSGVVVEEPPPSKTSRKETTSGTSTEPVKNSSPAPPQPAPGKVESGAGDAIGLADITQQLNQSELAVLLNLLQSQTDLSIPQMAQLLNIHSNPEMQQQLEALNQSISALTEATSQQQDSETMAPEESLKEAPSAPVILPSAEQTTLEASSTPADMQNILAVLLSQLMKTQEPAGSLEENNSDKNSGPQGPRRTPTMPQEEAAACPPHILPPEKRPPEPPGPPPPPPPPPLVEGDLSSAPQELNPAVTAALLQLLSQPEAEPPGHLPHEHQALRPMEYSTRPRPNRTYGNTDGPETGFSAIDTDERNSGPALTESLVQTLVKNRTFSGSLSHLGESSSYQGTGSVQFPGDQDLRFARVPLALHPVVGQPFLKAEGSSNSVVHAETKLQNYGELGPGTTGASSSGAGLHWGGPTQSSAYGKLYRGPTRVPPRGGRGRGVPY

[25] = tested on: MV4-11; assay: Antitumor activity against human MV4-11 cells xenografted in Balb/c nude mouse assessed as inhibition of tumor growth at 15 mg/kg, po administered once daily via gavage and measured on day 21; assay type: functional; conditions: MV4-11, 504 h, time 21 day, read-out: TGI
[26] = target: CDK7/Cyclin H/MNAT1 (Homo sapiens) (UniProt P51946+P50613+P51948); assay: Inhibition of human recombinant N-terminal 6X His-tagged CDK7/CCNH/N-terminal 6X His-tagged MNAT1 expressed in HEP Sf9 cells using ATP as substrate at 2 uM measured after 60 mins by ADP-Glo reagent based luminescence assay
[27] = Cmax in Balb/c mouse xenografted with human SUM149PT cells at 60 mg/kg, po administered once daily via gavage; assay type: ADME, organism-based; conditions: in vivo
[28] = Toxicity against female Sprague-Dawley rat assessed as effect on mean corpuscular hemoglobin at 7.5 to 30 mg/kg, po administered once daily via gavage for 28 days and measured on day 29; assay type: organism-based; conditions: in vivo, 696 h, dose 7.5-30 mg/kg, time 29 day
[29] = target: Voltage-gated inwardly rectifying potassium channel KCNH2 (Homo sapiens, UniProt Q12809); assay: Inhibition of hERG expressed in CHO cells assessed as inhibition of channel current measured at holding potential of -80 mV by whole cell patch clamp analysis; assay type: toxicity, cell-based
[30] = tested on: HEP Sf9; assay: Inhibition of human recombinant N-terminal GST-tagged CDK4/C-terminal 6XHis-tagged Cyclin D3 S259A mutant expressed in HEP Sf9 cells using ATP as substrate at 2 uM measured after 60 mins by ADP-Glo reagent based luminescence assay
[31] = Toxicity against male Sprague-Dawley rat assessed as effect on monocytes level at 10 to 40 mg/kg, po administered once daily via gavage for 28 days and measured on day 29; assay type: organism-based; conditions: in vivo, 696 h, dose 10-40 mg/kg, time 29 day
[32] = tested on: NAMALVA; assay: Antiproliferative activity against human NAMALWA cells assessed as reduction in cell viability incubated for 7 days by CellTiter-Glo reagent based luminescence analysis; assay type: functional; conditions: 168 h

C=CC(=O)N1CCc2c(ncnc2N2CC[C@@H](Nc3ncc(Cl)c(OC)n3)C2)C1
t1/2 [1]: 1.38 h | Activity [2]: Non-toxic | Cmax [3]: 793 ng/mL | inhibition [4]: Active | half-life [5]: 0.23 h | half-life [6]: 6.79 h | AUC(0-inf) [7]: 2280 ng·h/mL | Activity [8]: Toxic | inhibition [9]: Active | IC50 [10]: 0.135 µM | Activity [11]: Non-toxic | Activity [12]: Toxic | t1/2 [13]: 1.35 h | IC50 [14]: 0.16 µM | inhibition [15]: Active | inhibition [16]: inactive | inhibition [17]: Active | Activity [18]: Non-toxic | IC50 [19]: 0.131 µM | bioavailability [20]: 35.7% | AUCt [21]: 1330 ng·h/mL | IC50 [22]: 0.0794 µM | Activity [23]: Non-toxic | inhibition [24]: 97% | inhibition in vivo at 15 mg/kg [25]: 31% | inhibition [26]: 94% | Cmax [27]: 3300 ng/mL | Activity [28]: Non-toxic | IC50 [29]: > 30 µM | inhibition [30]: 68% | Activity [31]: Non-toxic | IC50 [32]: 0.098 µM
